# According to publication PMC9067113 (IUCrJ, 2022):
# Where two headings read alike, the source gives them in different places.
# Columns and labels:
# natural β-lactoglobulin = natural β-lactoglobulin (Bos taurus, UniProt P02754)
# [1] = molecular target: T1, β-lactoglobulin I56F/L39A/M107F (FAF) (Bos taurus, UniProt P02754, I18S/I72F/L17A/L55A/M123F); details: for N, stoichiometry: one set of binding sites model
# [2] = molecular target: T2, β-lactoglobulin I56F/L39A/M107W (FAW) (Bos taurus, UniProt P02754, I18S/I72F/L17A/L55A/M123W)
# [3] = molecular target: T1, β-lactoglobulin I56F/L39A/M107F (FAF); details: 50 mM phosphate buffer pH 7.5
# [4] = molecular target: T2, β-lactoglobulin I56F/L39A/M107W (FAW); details: 50 mM phosphate buffer pH 7.5
# T2 sequence (P02754 17-178 L17A/I18S/L55A/I72F/M123W): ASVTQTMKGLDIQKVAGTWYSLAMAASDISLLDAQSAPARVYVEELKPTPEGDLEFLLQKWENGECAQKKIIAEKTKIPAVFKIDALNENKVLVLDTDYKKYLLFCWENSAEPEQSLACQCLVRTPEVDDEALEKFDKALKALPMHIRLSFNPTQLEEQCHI
# T1 sequence (P02754 17-178 L17A/I18S/L55A/I72F/M123F): as the sequence (P02754 17-178 L17A/I18S/L55A/I72F/M123W) above, with W107F counted along it
# Sequence of natural β-lactoglobulin (P02754 17-178): as the sequence (P02754 17-178 L17A/I18S/L55A/I72F/M123W) above, with A1L, S2I, A39L, F56I, W107M counted along it
structure (smiles),measurement,setting,value
"CNCCCN1c2ccccc2CCc2ccccc21 [DSM, desipramine]","N, stoichiometry","natural β-lactoglobulin; Natural BLG, pH 7.5, 25 mM HEPES, 150 mM NaCl, 293 K, one set of binding sites model",0.91 ± 0.08
same,TΔS a,"natural β-lactoglobulin; Natural BLG, pH 7.5, 293 K",4.395 kcal/mol
same,"ΔH a, enthalpy change","natural β-lactoglobulin; Natural BLG, pH 7.5, 293 K",-1.298 ± 0.145 kcal/mol
same,"ΔS a, entropy change","natural β-lactoglobulin; Natural BLG, pH 7.5, 293 K",15.0 cal mol^−1 K^−1
same,outcome of ITC titration at pH 8.5,"natural β-lactoglobulin; native protein, Tris buffer pH 8.5",insufficient enthalpy change for the calculation of binding parameters
same,"N, stoichiometry","[1]; pH 7.5, 25 mM HEPES, 150 mM NaCl, 293 K",0.94 ± 0.06
same,TΔS a,"[1]; pH 7.5, 293 K",4.2192 kcal/mol
same,"ΔH a, enthalpy change","[1]; pH 7.5, 293 K",-1.634 ± 0.133 kcal/mol
same,"ΔS a, entropy change","[1]; pH 7.5, 293 K",14.4 cal mol^−1 K^−1
same,TΔS a,"[1]; pH 8.5, Tris buffer, 293 K",5.3033 kcal/mol
same,"ΔS a, entropy change","[1]; pH 8.5, Tris buffer, 293 K",18.1 cal mol^−1 K^−1
same,"N, stoichiometry","[1]; pH 8.5, Tris buffer, 293 K",1.21 ± 0.08
same,outcome of ITC titration at pH 8.5,[2]; Tris buffer pH 8.5,insufficient enthalpy change for the calculation of binding parameters
same,"N, stoichiometry","[2]; pH 7.5, 25 mM HEPES, 150 mM NaCl, 293 K, one set of binding sites model",0.92 ± 0.05
same,TΔS a,"[2]; pH 7.5, 293 K",4.2485 kcal/mol
same,"ΔH a, enthalpy change","[2]; pH 7.5, 293 K",-1.792 ± 0.137 kcal/mol
same,"ΔS a, entropy change","[2]; pH 7.5, 293 K",14.5 cal mol^−1 K^−1
same,"stoichiometry (DSM molecule per BLG chain), CD",[3],1
same,"stoichiometry (DSM molecule per BLG chain), CD",[4],1
